Experimental data: US20080233242A1, “Antioxidant of Bamboo Leaves and Its Uses” (priority 2003, published 2008)

System: lipid oxidation in Jinhua ham
Test: Antioxidation and sensory quality of Jinhua ham slices (AV, POV, chromatic aberration)
Details: ham slice soaked 2 min in 0.03% solution, stored at 50±1° C. for 11 days, versus control group
Description: AOB was dissolved in water to produce a 0.03% solution, TBHQ (previously dissolved in ethanol) in the same concentration as control. A slice of Jinhua ham with a thickness of 1 cm was soaked for 2 min, and the effects of AOB on antioxidation and sensory quality of the slice of Jinhua ham were compared.

CC(C)(C)c1cc(O)ccc1O [TBHQ, tert-butyl hydroquinone]
lipid oxidation (AV and POV): significantly inhibited
